Source: patent publication US4079135A, “Morpholine derivatives as antidepressants” (Imperial Chemical Industries Limited, priority 1973, dated 1978)
Counter-ions that a name gives are not always drawn.

Columns and labels:
[1] = Oral LD50 in mice; settings: mouse, in vivo, dosed orally
Method: The compound of the invention 2-(4H-2,3-dihydro-1,4-benzoxazin-3-one-4-ylmethyl)morpholine hydrogen oxalate has an LD50 in mice of 800 mg./kg. when dosed orally.

[2] = system: reserpine-induced hypothermia in mice; experiment: RHL test: reversal of reserpine-induced hypothermia in mice; type: in vivo; settings: 4 hours, over a large number of tests, reserpine 2 mg./kg. s.c. 17 h before
Method: This effect is the one primarily used in the art for establishing the relative antidepressant activity in a series of chemically-related compounds. […] Pharmacol., 1962, 14, 509. The RHL test is carried out as follows:-
Mice are kept in a constant temperature room maintained at 21° ± 1° C. Each member of groups of 4 mice is given reserpine (2 mg. of base per kg. bodyweight, given subcutaneously as the acetate). Seventeen hours later the oesophageal temperature (TO) of each mouse is recorded by means of an orally-inserted probe coupled to an electric thermometer which is calibrated in degree Centigrade and which can be read to 0.1° C. Immediately after the temperature measurement the mice are dosed orally with the test compound, or with imipramine, each mouse in a group of 4 being given the same substance, and the oesophageal temperatures are again recorded after 4 hours (T4). The compound under test is dosed at serial dilutions, e.g. 100, 30, 3, 1, 0.3, 0.1 mg./kg. Imipramine is used as the control. […] At 1 mg./kg. it produces an average rise of 1.7° C. A test compound which at a certain dose level gives a rise in temperature equal to or greater than that given by 1 mg./kg. of imipramine, dosed to a different set of mice on the same day, is adjudged "active" at that dose.

Row | SMILES | LD50 [1] | average rise in the temperature of a reserpinised mouse ([2]; 1 mg./kg. oral) | average rise in the temperature of a reserpinised mouse ([2]; 3 mg./kg. oral)
1 | O=C1COc2ccccc2N1CC1CNCCO1 (stereo not drawn) [2-(4H-2,3-dihydro-1,4-benzoxazin-3-one-4-ylmethyl)morpholine hydrogen oxalate] | 800 mg/kg | – | –
2 | CN(C)CCCN1c2ccccc2CCc2ccccc21 [imipramine] | – | 1.7 °C | 3 °C
